Earlier results in patent US20080113949A1, “Use of dipyridamole in combination with acetylsalicylic acid and an angiotensin II antagonist for stroke prevention” (priority 2003, published 2008).

Conditions: clinical study ESPS-2; compared with aspirin

OCCN(CCO)c1nc(N2CCCCC2)c2nc(N(CCO)CCO)nc(N3CCCCC3)c2n1 [dipyridamole, 2,6-bis(diethanolamino)-4,8-dipiperidino-pyrimido[5,4-d]pyrimidine]
reduction of stroke risk: as effective as low-dose aspirin
